Tested on: CD3 positive T-cells in rabbit tonsils
Test: percentage of CD3 positive T-cells in rabbit tonsils injected with mometasone versus control (FIG. 11)
Type: in vivo
Description: FIG. 11 includes a graph illustrating a percentage of cluster-of-differentiation-3 (CD3) T-cell co-receptors in a rabbit when treated with mometasone versus a control. Referring now to FIG. 11, a graph is shown illustrating a percentage of cluster-of-differentiation-3 (CD3) T-cell co-receptors in a rabbit when treated with mometasone versus a control. In immunology, the CD3 T-cell co-receptor helps to activate both the cytotoxic T-Cell (CD8+ naive T cells) and also T helper cells (CD4+ naive T cells). CD3 consists of a protein complex and is composed of four distinct chains.

Question: How did the “CD3 positive T-cells (percentage)” value turn out when `C[C@@H]1C[C@H]2[C@@H]3CCC4=CC(=O)C=C[C@]4(C)[C@@]3(Cl)[C@@H](O)C[C@]2(C)[C@@]1(O)C(=O)CCl` [mometasone] was run?
Answer: The value was “significantly lower”.
